Reference: patent publication EP4603088A1, “N-PALMITOYLET[…] USE IN COMBINATION WITH MELOXICAM IN THE TREATMENT OF IN[…]” (priority 2024, dated 2025)
Values joined by “and” are separate entries in the source; they are usually repeats but may differ in a detail not shown here. Identical values can stand only once.

How the values were obtained:
[1] = system: CFA-induced inflammatory pain; assay: CFA-induced inflammatory pain model, paw pressure test; format: in vivo, male Sprague-Dawley rats; settings: meloxicam 3 mg/kg and/or micronized PEA 10 mg/kg, single administration per os on day 7 after CFA; T0-T60; p = 0.1405 (meloxicam), p = 0.9588 (PEA), p < 0.0001 (combination)
Text: In the in vivo experimentation, male Sprague-Dawley rats (200-250 g) (Envigo, Varese, Italy) fed "ad libitum" and housed in cages with a controlled sleep/wake cycle were used.
Before the start of the study, the animals were subjected to a 1-week acclimatization period at the Center for Laboratory Animal Sheltering (Ce.S.A.L.) of the University of Florence, following all experimental procedures and protocols compliant with the principles of care and welfare of laboratory animals approved by the Italian Ministry of Health (Italian Legislative Decree 2014/26), European directives (EU Directive 2010/63) and the ARRIVE guidelines. […]
All animals were subjected to the paw pressure test at the level of the ipsilateral paw, performed before (T0) or after 15, 30, 45 and 60 minutes after the single administration of the treatment (T15, T30, T45 and T60, respectively). In particular, the nociceptive threshold was calculated with an analgesiometer (Ugo Basile, Varese, Italy) by applying an increasing pressure at constant speed (32 g/s) by means of a non-pointed conical support on the dorsal surface of the ipsilateral paw with respect to the injection of CFA (or vehicle). […]
The AUC was analyzed by a two-way factor analysis of variance (2x2 ANOVA), after plotting the mean values, according to the procedure shown by Slinker BK. […] The values were expressed as mean ± standard error mean (SEM). […]

[2] = administered in ultra-micronized form; Nestmann Food Sci Nutr. 2016; cited from earlier work
[3] = system: LPS-induced inflammatory pain; assay: LPS-induced inflammatory pain model, paw pressure test; format: in vivo, Male Sprague-Dawley rats; settings: 60 min after LPS
Method: Male Sprague-Dawley rats were housed in groups of four, in 26x41 cm cages, at a temperature of 23±1°C, with a 12-hour circadian cycle, and water/food "ad libitum" (standard diet). LPS (10 µg in 50 µl of 0.9% NaCl, Sigma-Aldrich) was injected into the plantar surface of the hind paw of the rat following isoflurane anesthesia. Control animals were treated with vehicle alone (0.9% NaCl). Ten minutes before the LPS injection, the compounds to be tested or the vehicle alone (1% CMC) were administered orally, according to the following treatment groups (N=8 where not otherwise specified): • CTRL (healthy animals injected with 0.9% NaCl) • VEIC (animals injected with LPS and treated with vehicle, N=9) • MLX30 (animals injected with LPS and treated with meloxicam 30 mg/kg) • MLX3 (animals injected with LPS and treated with meloxicam 3 mg/kg) • PEA10 (animals injected with LPS and treated with PEA 10 mg/kg) • PEA10+MLX3 (animals injected with LPS and treated with PEA 10 mg/kg + meloxicam 3 mg/kg) • PEA5 (animals injected with LPS and treated with PEA 5 mg/kg) • PEA5 + MLX3 (animals injected with LPS and treated with PEA 5 mg/kg + meloxicam 3 mg/kg).
Inflammatory pain induced by LPS injection was measured by paw pressure test. Briefly, before and sixty min after LPS injection, increasing pressure at a constant rate (32 g/s) was applied to the ipsilateral paw of the rat using a non-sharp conical support. […] An analgesimeter (Ugo Basile, Varese) was used for this purpose. The results were expressed in terms of analgesic potency, defined as percentage inhibition (mean ± SEM) of inflammatory pain induced by LPS and calculated according to the formula: 100*(treatm-VEIC)/(CTRL-VEIC).
The results were analyzed via Generalized Linear Model (GLM) followed by post-hoc analysis based on Tukey-Kramer correction for multiple comparisons. […] In order to verify whether the effect of PEA and meloxicam was synergistic, it was analyzed whether the extent of the inhibition of inflammatory pain by LPS was greater for the association of the two substances compared to the substances used individually. […] All analyses were performed using SAS software, version 9.4 (SAS Institute, Cary, NC, USA). P value < 0.05 was considered significant.

[4] = system: inflammatory pain induced by Carrageenan; assay: Carrageenan-induced inflammatory pain model, Von Frey test; format: in vivo, male Sprague-Dawley rats; settings: PEA 3 mg/kg and/or MLX 0.05 mg/kg orally 30 minutes before CAR; 3 and 5 hours after CAR injection; combination p=0.0084 and p=0.0004 vs vehicle
Method: All analyses were performed using SAS software, version 9.4 (SAS Institute, Cary, NC, USA). P value < 0.05 was considered significant.

SMILES | inflammatory pain tolerance threshold (paw pressure test), effect with respect to CFA [1] | dose up to which free of acute and sub-chronic toxicity [2] | analgesic potency, percentage inhibition of inflammatory pain induced by LPS (media) ([3]; PEA 5 mg/kg orally 10 min before LPS) | analgesic potency, percentage inhibition of inflammatory pain induced by LPS (media) ([3]; PEA 10 mg/kg orally 10 min before LPS) | effect on the LPS-induced drop of the nociceptive threshold vs LPS vehicle ([3]; meloxicam at 3 mg/kg and 30 mg/kg, PEA at 5 mg/kg and 10 mg/kg, alone or associated with low-dose meloxicam, p<0.0001 for all comparisons) | analgesic effect vs vehicle (Von Frey test, paw retraction) [4] | analgesic potency, percentage inhibition of inflammatory pain induced by LPS (media) ([3]; meloxicam 3 mg/kg orally 10 min before LPS, listed as MLX) | analgesic potency, percentage inhibition of inflammatory pain induced by LPS (media) ([3]; meloxicam 30 mg/kg orally 10 min before LPS, listed as MLX)
CCCCCCCCCCCCCCCC(=O)NCCO [PEA, N-palmitoylethanolamide] | no significant effect | ≥ 1000 mg/kg daily | 26,46% and 26,5% | 54,24% and 54,2% | significantly counteracted the pro-algic effect of LPS | no analgesic effect significantly different from the vehicle | – | –
Cc1cnc(NC(=O)C2=C(O)c3ccccc3S(=O)(=O)N2C)s1 [meloxicam] | no significant effect | – | – | – | – | – | 46,12% and 46,1% | 50,49% and 50,5%
